The NIST ThermoML archive (doi:10.1007/s10765-019-2537-x)
“And” between values parts separate entries of the source, which are not always exact repeats. Equal values may be shown once.

Details: Liquid, transient hot wire

CCCCCCCCCCCCCCC [pentadecane]
Details | thermal conductivity
318.28 K, 1420 kPa | 0.1369 W/m/K
318.31 K, 1420 kPa | 0.138 W/m/K
318.36 K, 15320 kPa | 0.1419 W/m/K
318.4 K, 1420 kPa | 0.1376 W/m/K
318.4 K, 21080 kPa | 0.1429 W/m/K
318.42 K, 21080 kPa | 0.1432 W/m/K
318.44 K, 15320 kPa | 0.1408 W/m/K and 0.1415 W/m/K
318.45 K, 21080 kPa | 0.1432 W/m/K
318.49 K, 5220 kPa | 0.1386 W/m/K
318.5 K, 10340 kPa | 0.1403 W/m/K
318.52 K, 5220 kPa | 0.1382 W/m/K
318.54 K, 10340 kPa | 0.139 W/m/K
318.56 K, 10340 kPa | 0.1394 W/m/K
318.59 K, 5220 kPa | 0.1377 W/m/K
336.96 K, 20240 kPa | 0.1393 W/m/K
337.02 K, 15360 kPa | 0.1403 W/m/K
337.04 K, 5660 kPa | 0.1338 W/m/K
337.09 K, 5660 kPa | 0.1353 W/m/K
337.1 K, 20240 kPa | 0.1399 W/m/K
337.13 K, 20240 kPa | 0.1401 W/m/K
337.14 K, 5660 kPa | 0.1361 W/m/K
337.14 K, 15360 kPa | 0.1368 W/m/K
337.18 K, 1270 kPa | 0.1332 W/m/K
337.2 K, 15360 kPa | 0.1372 W/m/K
337.22 K, 1270 kPa | 0.132 W/m/K
337.24 K, 1270 kPa | 0.1338 W/m/K
337.25 K, 10510 kPa | 0.1368 W/m/K
337.28 K, 10510 kPa | 0.1356 W/m/K
356.45 K, 5190 kPa | 0.1334 W/m/K
356.57 K, 5190 kPa | 0.1301 W/m/K
356.61 K, 5190 kPa | 0.131 W/m/K
356.68 K, 10160 kPa | 0.1329 W/m/K
356.7 K, 1040 kPa | 0.1284 W/m/K
356.71 K, 10160 kPa | 0.1307 W/m/K
356.72 K, 10160 kPa | 0.1314 W/m/K
356.74 K, 15190 kPa | 0.1321 W/m/K
356.75 K, 1040 kPa | 0.13 W/m/K
356.75 K, 20580 kPa | 0.1355 W/m/K
356.79 K, 20580 kPa | 0.1377 W/m/K
356.8 K, 15190 kPa | 0.132 W/m/K
356.83 K, 15190 kPa | 0.1341 W/m/K
356.9 K, 20580 kPa | 0.1346 W/m/K
377.3 K, 5560 kPa | 0.1275 W/m/K
377.31 K, 5560 kPa | 0.1262 W/m/K
377.33 K, 10240 kPa | 0.1296 W/m/K
377.39 K, 5560 kPa | 0.1272 W/m/K
377.4 K, 10240 kPa | 0.1302 W/m/K
377.44 K, 1420 kPa | 0.1248 W/m/K
377.46 K, 10240 kPa | 0.1284 W/m/K
377.52 K, 20480 kPa | 0.131 W/m/K
377.53 K, 1420 kPa | 0.1234 W/m/K
377.6 K, 1420 kPa | 0.1238 W/m/K
377.6 K, 20480 kPa | 0.1304 W/m/K
377.61 K, 20480 kPa | 0.1326 W/m/K
377.62 K, 15010 kPa | 0.1288 W/m/K
377.7 K, 15010 kPa | 0.1284 W/m/K
377.73 K, 15010 kPa | 0.1274 W/m/K
396.74 K, 20460 kPa | 0.1297 W/m/K
396.83 K, 20460 kPa | 0.1291 W/m/K
397.07 K, 20460 kPa | 0.1276 W/m/K
397.22 K, 10360 kPa | 0.1224 W/m/K
397.22 K, 15080 kPa | 0.1248 W/m/K
397.24 K, 10360 kPa | 0.1252 W/m/K
397.31 K, 15080 kPa | 0.1229 W/m/K
397.32 K, 15100 kPa | 0.1242 W/m/K
397.38 K, 10410 kPa | 0.1225 W/m/K
397.42 K, 1330 kPa | 0.1182 W/m/K
397.44 K, 5360 kPa | 0.1209 W/m/K
397.47 K, 1330 kPa | 0.1188 W/m/K
397.49 K, 1330 kPa | 0.1165 W/m/K
397.52 K, 5360 kPa | 0.1202 W/m/K
397.57 K, 5360 kPa | 0.1176 W/m/K
417.11 K, 5290 kPa | 0.121 W/m/K
417.13 K, 20250 kPa | 0.1228 W/m/K
417.16 K, 15230 kPa | 0.1204 W/m/K
417.19 K, 15230 kPa | 0.1227 W/m/K
417.26 K, 15230 kPa | 0.1223 W/m/K
417.27 K, 10550 kPa | 0.1227 W/m/K
417.3 K, 20250 kPa | 0.1195 W/m/K
417.36 K, 1130 kPa | 0.1134 W/m/K
417.37 K, 1130 kPa | 0.115 W/m/K
417.47 K, 10430 kPa | 0.1185 W/m/K
417.48 K, 1130 kPa | 0.1123 W/m/K
417.5 K, 10430 kPa | 0.1178 W/m/K
436.73 K, 20320 kPa | 0.1172 W/m/K
436.78 K, 20320 kPa | 0.1187 W/m/K
436.9 K, 10760 kPa | 0.1134 W/m/K
436.95 K, 5250 kPa | 0.111 W/m/K
436.98 K, 10580 kPa | 0.1145 W/m/K
437.06 K, 1280 kPa | 0.1105 W/m/K
437.06 K, 15070 kPa | 0.1143 W/m/K
437.08 K, 15070 kPa | 0.1135 W/m/K
437.1 K, 5250 kPa | 0.1106 W/m/K
437.1 K, 15070 kPa | 0.1133 W/m/K
437.11 K, 1280 kPa | 0.1079 W/m/K
437.12 K, 10470 kPa | 0.1112 W/m/K
437.14 K, 5250 kPa | 0.1103 W/m/K
437.25 K, 1280 kPa | 0.1089 W/m/K
456.48 K, 20550 kPa | 0.1176 W/m/K
456.52 K, 20460 kPa | 0.1176 W/m/K
456.66 K, 20460 kPa | 0.113 W/m/K
456.86 K, 15300 kPa | 0.1132 W/m/K
456.9 K, 15300 kPa | 0.1124 W/m/K
456.94 K, 15300 kPa | 0.1116 W/m/K
457.02 K, 1540 kPa | 0.1032 W/m/K
457.03 K, 1550 kPa | 0.1063 W/m/K
457.03 K, 10370 kPa | 0.1096 W/m/K
457.04 K, 1560 kPa | 0.1059 W/m/K
457.18 K, 5400 kPa | 0.1082 W/m/K
457.32 K, 5440 kPa | 0.1063 W/m/K
457.33 K, 10250 kPa | 0.1104 W/m/K
457.37 K, 10270 kPa | 0.1084 W/m/K
457.4 K, 5440 kPa | 0.1059 W/m/K
476.68 K, 20310 kPa | 0.114 W/m/K
476.72 K, 15160 kPa | 0.1061 W/m/K
476.9 K, 20850 kPa | 0.1106 W/m/K
476.95 K, 15160 kPa | 0.1094 W/m/K
476.97 K, 10330 kPa | 0.1092 W/m/K
477 K, 15160 kPa | 0.1082 W/m/K
477.06 K, 20970 kPa | 0.1128 W/m/K
477.24 K, 5120 kPa | 0.1033 W/m/K
477.29 K, 1080 kPa | 0.0998 W/m/K
477.29 K, 10330 kPa | 0.1023 W/m/K
477.3 K, 5120 kPa | 0.1024 W/m/K
477.3 K, 10330 kPa | 0.1044 W/m/K
477.32 K, 5120 kPa | 0.1031 W/m/K
477.33 K, 1080 kPa | 0.0988 W/m/K
477.61 K, 1080 kPa | 0.1038 W/m/K
496.62 K, 20420 kPa | 0.111 W/m/K
496.9 K, 20420 kPa | 0.1069 W/m/K
496.94 K, 10500 kPa | 0.102 W/m/K
496.95 K, 5430 kPa | 0.0983 W/m/K
496.95 K, 20420 kPa | 0.1039 W/m/K
496.96 K, 15010 kPa | 0.1033 W/m/K
496.97 K, 15010 kPa | 0.1021 W/m/K and 0.105 W/m/K
497 K, 10530 kPa | 0.1008 W/m/K
497.04 K, 10470 kPa | 0.1024 W/m/K
497.1 K, 5410 kPa | 0.0981 W/m/K
497.15 K, 5430 kPa | 0.0965 W/m/K
516.81 K, 15180 kPa | 0.104 W/m/K
516.84 K, 20110 kPa | 0.0998 W/m/K
516.89 K, 20110 kPa | 0.1031 W/m/K
517 K, 15180 kPa | 0.0984 W/m/K
517 K, 20100 kPa | 0.1021 W/m/K
517.03 K, 15180 kPa | 0.099 W/m/K
517.12 K, 5490 kPa | 0.0948 W/m/K
517.19 K, 5490 kPa | 0.094 W/m/K
517.2 K, 5490 kPa | 0.0941 W/m/K
536.59 K, 20650 kPa | 0.1039 W/m/K and 0.1025 W/m/K
536.85 K, 20650 kPa | 0.0995 W/m/K
536.99 K, 15650 kPa | 0.1001 W/m/K
537.13 K, 15650 kPa | 0.0975 W/m/K
537.14 K, 10120 kPa | 0.0972 W/m/K
537.39 K, 5310 kPa | 0.0872 W/m/K
556.55 K, 5420 kPa | 0.0851 W/m/K
556.82 K, 15300 kPa | 0.1002 W/m/K
556.9 K, 20180 kPa | 0.0999 W/m/K
556.93 K, 10380 kPa | 0.0967 W/m/K
557 K, 20180 kPa | 0.0986 W/m/K
557.05 K, 10380 kPa | 0.0943 W/m/K
557.06 K, 20180 kPa | 0.098 W/m/K
557.12 K, 15300 kPa | 0.0941 W/m/K
557.14 K, 15300 kPa | 0.0924 W/m/K
576.55 K, 20450 kPa | 0.0998 W/m/K
576.95 K, 20450 kPa | 0.0961 W/m/K
577.01 K, 10240 kPa | 0.0944 W/m/K
577.06 K, 20450 kPa | 0.0928 W/m/K
577.08 K, 15190 kPa | 0.0923 W/m/K
577.1 K, 5140 kPa | 0.0897 W/m/K
577.12 K, 10300 kPa | 0.0889 W/m/K
577.12 K, 15190 kPa | 0.0924 W/m/K
577.15 K, 15190 kPa | 0.09 W/m/K
577.16 K, 10320 kPa | 0.0907 W/m/K
577.17 K, 5140 kPa | 0.0888 W/m/K
577.25 K, 5140 kPa | 0.0876 W/m/K
